Source: patent US20080287469A1, “Phosphoinositide 3-Kinase Inhibitors for Inhibiting Leukocyte Accumulation” (priority 2005, published 2008)

Legend:
[1] = target: CD45 tyrosine phosphatase (Homo sapiens, UniProt P08575); assay: Protein kinase/phosphatase panel: CD45 tyrosine phosphatase; type: biochemical; settings: inhibitor 10 μM
CK1 = settings: inhibitor 10 μM; reported by Sadhu et al.; cited from earlier work
[2] = system: neutrophil accumulation in BAL fluid; assay: LPS-induced acute lung injury model, BAL fluid; type: in vivo; settings: for reduction in the accumulation of neutrophils in BAL fluid: one hour prior to LPS challenge
Procedure: Lewis rats to be treated with an inhibitor in accordance with the invention or vehicle control (PEG400) were first challenged with LPS [Asti et al., Pulm. Pharmacol Ther., 13:61-69 (2000)]. Briefly, the trachea was exposed by standard surgical procedures and 100 μl saline solution or saline containing LPS (Escherichia Coli Serotype 0111:B4, Sigma) was instilled. Six hours following the challenge, rats were euthanized and the bronchoalveolar lavage (BAL) fluid was collected for cell differentials. Total white blood cell (WBC) and neutrophil counts were determined (Hemavet™ 850 FS cell counter). Cell populations were identified by morphological examination of smears prepared by cytocentrifugation.
Animals received a single oral dose of either a compound in accordance with the invention (25 mg/kg for mice and 20 or 40 mg/kg for rats) or vehicle (PEG-400). Blood samples were subsequently drawn at indicated time points and plasma concentration of the compound determined after liquid-liquid extraction by LC/MS. The lower quantification limit was 50 ng/ml. Plasma samples from control animals (vehicle alone) were used as the blank control.

PDK1 [3] = assay: Activity of PDK1 immunoprecipitated from TNFα-stimulated HUVECs; type: cell-based, human; settings: incubation of intact HUVECs with compound
Description: Thus, PI3Kδ activity is required for PDK1 and Akt function in endothelium as previously described for neutrophils.

PDK1 [4] = target: PDK1 (Homo sapiens, UniProt O15530); assay: Protein kinase/phosphatase panel: PDK1; type: biochemical; settings: inhibitor 10 μM; 100 μM ATP
CHK1 = CHK1 (Homo sapiens, UniProt O14757); settings: inhibitor 10 μM; reported by Sadhu et al.; cited from earlier work
TNFα-stimulated HUVECs = assay: Neutrophil tethering to TNFα-stimulated HUVECs, parallel plate flow chamber; type: cell-based, human; settings: for reduction of neutrophil tethering to HUVECs pre-incubated with inhibitor: 2 μM, vs vehicle
Procedure: First, the effect of inhibiting PI3Kδ in endothelial cells was examined. Human umbilical vein endothelial cells (HUVECs) (3-4 passages; Cambrex Inc., East Rutherford, N.J.) grown on fibronectin-coated glass cover slips were pretreated with an inhibitor in accordance with the invention (2 μM) or vehicle control for 1 hour prior to being stimulated with TNFα (5 ng/ml, 4 h). Stimulation with TNFα induces expression of E-selectin by the endothelial cells. Peripheral blood neutrophils from healthy volunteers were isolated from whole blood by dextran sedimentation followed by density separation over Ficoll-Hypaque and hypotonic lysis. Approval was obtained from the Washington University Institutional Review Board for these studies. Informed consent was provided according to the Declaration of Helsinki. […] In additional experiments where leukocytes were pre-treated with an inhibitor of the invention as described above, the HUVECS were pre-incubated with mAb CL3 (50 μg/ml, 15 min) to block E-selectin binding. […] Endothelial cells therefore recruit leukocytes at least in part through selectins.

ZAP-70 = ZAP-70 (Homo sapiens, UniProt P43403); assay: Protein kinase/phosphatase panel: ZAP-70; type: biochemical; settings: inhibitor 10 μM; 100 μM ATP
CDK2/cyclinA = CDK2/cyclinA (Homo sapiens, UniProt P24941); assay: Protein kinase/phosphatase panel: CDK2/cyclinA; type: biochemical; settings: inhibitor 10 μM; 100 μM ATP
[5] = target: EGF receptor tyrosine kinase (Homo sapiens, UniProt P00533); assay: Protein kinase/phosphatase panel: EGF receptor tyrosine kinase; type: biochemical; settings: inhibitor 10 μM; 100 μM ATP
[6] = target: Insulin receptor tyrosine kinase (Homo sapiens, UniProt P06213); assay: Protein kinase/phosphatase panel: insulin receptor tyrosine kinase; type: biochemical; settings: inhibitor 10 μM; 100 μM ATP
PKCβII = PKCβII (Homo sapiens, UniProt P05771); settings: inhibitor 10 μM; reported by Sadhu et al.; cited from earlier work
[7] = system: Akt phosphorylation in HUVECs; assay: Akt phosphorylation in TNFα-stimulated HUVECs (Western blot); type: cell-based, human; settings: 2 μM
cSrc = cSrc (Homo sapiens, UniProt P12931); settings: inhibitor 10 μM; reported by Sadhu et al.; cited from earlier work
Lck = Lck (Homo sapiens, UniProt P06239); assay: Protein kinase/phosphatase panel: Lck; type: biochemical; settings: inhibitor 10 μM; 100 μM ATP
PKC-θ = PKC-θ (Homo sapiens, UniProt Q04759); assay: Protein kinase/phosphatase panel: PKC-θ; type: biochemical; settings: inhibitor 10 μM; 100 μM ATP
PKCα = PKCα (Homo sapiens, UniProt P17252); settings: inhibitor 10 μM; reported by Sadhu et al.; cited from earlier work
[8] = Number of circulating neutrophils in treated mice; type: in vivo; settings: inhibitor treated animals
Description: The reduction in cell adhesion in these animals was not due to inhibitor-induced leukopenia as the number of circulating neutrophils was similar in both the control and experimental groups (2,857.3±803 and 2,730.7±1132.6 for control and inhibitor treated animals, respectively). The absolute number of circulating neutrophils in animals deficient in PI3Kδ was 2,997.7±776.1 (n=8).

DNA-PK = DNA-PK (Homo sapiens, UniProt P78527); settings: inhibitor 10 μM; reported by Sadhu et al.; cited from earlier work
PKBα (Akt 1) = PKBα (Akt 1) (Homo sapiens, UniProt P31749); settings: inhibitor 10 μM; reported by Sadhu et al.; cited from earlier work
neutrophils = settings: absence of hemodynamic forces; Sadhu et al.; cited from earlier work

PDK1 (Homo sapiens, UniProt O15530), sequence (O15530 whole entry): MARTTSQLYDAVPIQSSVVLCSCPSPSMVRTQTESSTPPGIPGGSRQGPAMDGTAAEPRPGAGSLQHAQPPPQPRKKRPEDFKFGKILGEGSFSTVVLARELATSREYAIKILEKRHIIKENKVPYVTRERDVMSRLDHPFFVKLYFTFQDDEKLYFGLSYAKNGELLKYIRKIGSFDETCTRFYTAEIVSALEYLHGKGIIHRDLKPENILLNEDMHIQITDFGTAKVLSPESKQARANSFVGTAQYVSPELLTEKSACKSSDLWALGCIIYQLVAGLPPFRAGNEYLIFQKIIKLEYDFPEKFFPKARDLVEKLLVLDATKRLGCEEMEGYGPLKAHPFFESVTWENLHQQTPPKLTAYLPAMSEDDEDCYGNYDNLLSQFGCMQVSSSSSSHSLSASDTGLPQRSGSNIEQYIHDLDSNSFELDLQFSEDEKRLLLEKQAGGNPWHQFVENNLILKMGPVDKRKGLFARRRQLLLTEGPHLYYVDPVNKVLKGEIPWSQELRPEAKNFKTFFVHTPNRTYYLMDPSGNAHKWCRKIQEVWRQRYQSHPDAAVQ
EGF receptor tyrosine kinase, sequence (P00533 25-1210): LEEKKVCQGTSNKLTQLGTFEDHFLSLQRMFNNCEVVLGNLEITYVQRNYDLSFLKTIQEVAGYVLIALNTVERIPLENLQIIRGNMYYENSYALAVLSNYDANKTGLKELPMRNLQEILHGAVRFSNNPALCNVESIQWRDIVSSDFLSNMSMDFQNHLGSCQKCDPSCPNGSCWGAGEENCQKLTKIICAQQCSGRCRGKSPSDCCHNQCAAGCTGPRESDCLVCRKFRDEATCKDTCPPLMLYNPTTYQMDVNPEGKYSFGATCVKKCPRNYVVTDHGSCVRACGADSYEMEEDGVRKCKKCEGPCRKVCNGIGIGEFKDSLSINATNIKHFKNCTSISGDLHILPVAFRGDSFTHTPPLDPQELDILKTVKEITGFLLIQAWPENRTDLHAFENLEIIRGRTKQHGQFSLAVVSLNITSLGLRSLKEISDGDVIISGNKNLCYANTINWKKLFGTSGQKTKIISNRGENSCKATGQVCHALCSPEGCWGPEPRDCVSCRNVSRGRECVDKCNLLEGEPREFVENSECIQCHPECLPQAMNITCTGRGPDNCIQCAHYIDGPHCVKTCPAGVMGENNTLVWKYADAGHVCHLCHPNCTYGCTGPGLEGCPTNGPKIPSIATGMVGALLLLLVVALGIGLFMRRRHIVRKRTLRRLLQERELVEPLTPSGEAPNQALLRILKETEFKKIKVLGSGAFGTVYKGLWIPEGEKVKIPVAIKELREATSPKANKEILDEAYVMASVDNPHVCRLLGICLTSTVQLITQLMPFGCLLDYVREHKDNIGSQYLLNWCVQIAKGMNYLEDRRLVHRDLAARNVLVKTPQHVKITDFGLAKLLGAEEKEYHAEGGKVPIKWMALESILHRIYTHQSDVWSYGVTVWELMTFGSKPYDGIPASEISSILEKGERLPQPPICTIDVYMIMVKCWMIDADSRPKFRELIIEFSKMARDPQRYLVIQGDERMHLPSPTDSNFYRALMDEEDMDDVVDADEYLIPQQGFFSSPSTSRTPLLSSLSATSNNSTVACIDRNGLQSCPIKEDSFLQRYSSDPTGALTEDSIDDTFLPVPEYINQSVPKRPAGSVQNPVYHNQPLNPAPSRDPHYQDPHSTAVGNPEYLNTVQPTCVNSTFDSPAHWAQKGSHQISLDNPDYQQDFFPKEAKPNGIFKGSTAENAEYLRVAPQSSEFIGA
Insulin receptor tyrosine kinase, sequence (P06213 28-1382): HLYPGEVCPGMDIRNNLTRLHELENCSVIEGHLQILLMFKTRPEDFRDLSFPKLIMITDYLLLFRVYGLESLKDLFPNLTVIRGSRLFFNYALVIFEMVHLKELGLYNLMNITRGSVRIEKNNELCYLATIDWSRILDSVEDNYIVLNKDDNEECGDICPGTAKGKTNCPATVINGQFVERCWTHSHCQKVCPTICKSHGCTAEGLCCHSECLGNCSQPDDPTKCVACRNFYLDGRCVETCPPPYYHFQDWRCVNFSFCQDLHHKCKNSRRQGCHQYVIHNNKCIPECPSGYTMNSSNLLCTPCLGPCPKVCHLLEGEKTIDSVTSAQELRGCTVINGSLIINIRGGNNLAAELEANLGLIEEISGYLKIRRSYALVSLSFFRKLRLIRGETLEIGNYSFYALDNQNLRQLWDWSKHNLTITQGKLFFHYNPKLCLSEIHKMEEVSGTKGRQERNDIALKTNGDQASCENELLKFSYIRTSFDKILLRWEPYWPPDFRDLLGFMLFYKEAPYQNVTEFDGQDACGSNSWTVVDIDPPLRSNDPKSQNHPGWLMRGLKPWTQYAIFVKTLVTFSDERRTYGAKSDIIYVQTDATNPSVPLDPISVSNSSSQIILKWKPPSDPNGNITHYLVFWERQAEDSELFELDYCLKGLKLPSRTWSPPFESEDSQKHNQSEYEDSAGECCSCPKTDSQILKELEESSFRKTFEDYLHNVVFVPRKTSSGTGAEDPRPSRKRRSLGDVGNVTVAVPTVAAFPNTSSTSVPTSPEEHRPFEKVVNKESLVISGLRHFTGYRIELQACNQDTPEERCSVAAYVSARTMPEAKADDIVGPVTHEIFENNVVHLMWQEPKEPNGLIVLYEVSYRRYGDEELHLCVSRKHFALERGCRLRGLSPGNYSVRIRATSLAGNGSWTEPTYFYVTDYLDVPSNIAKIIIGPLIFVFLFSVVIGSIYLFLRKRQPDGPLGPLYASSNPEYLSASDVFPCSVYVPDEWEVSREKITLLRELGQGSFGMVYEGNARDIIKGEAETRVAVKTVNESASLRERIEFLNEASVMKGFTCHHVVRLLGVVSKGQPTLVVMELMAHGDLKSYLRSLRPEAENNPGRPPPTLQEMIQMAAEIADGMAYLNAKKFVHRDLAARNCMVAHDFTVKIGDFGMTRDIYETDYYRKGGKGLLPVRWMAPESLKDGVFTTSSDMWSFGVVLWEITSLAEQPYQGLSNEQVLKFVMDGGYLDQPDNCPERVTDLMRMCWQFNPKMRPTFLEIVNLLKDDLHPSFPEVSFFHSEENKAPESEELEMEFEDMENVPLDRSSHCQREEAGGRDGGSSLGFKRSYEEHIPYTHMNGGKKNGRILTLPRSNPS
Lck, sequence (P06239 whole entry, species assumed): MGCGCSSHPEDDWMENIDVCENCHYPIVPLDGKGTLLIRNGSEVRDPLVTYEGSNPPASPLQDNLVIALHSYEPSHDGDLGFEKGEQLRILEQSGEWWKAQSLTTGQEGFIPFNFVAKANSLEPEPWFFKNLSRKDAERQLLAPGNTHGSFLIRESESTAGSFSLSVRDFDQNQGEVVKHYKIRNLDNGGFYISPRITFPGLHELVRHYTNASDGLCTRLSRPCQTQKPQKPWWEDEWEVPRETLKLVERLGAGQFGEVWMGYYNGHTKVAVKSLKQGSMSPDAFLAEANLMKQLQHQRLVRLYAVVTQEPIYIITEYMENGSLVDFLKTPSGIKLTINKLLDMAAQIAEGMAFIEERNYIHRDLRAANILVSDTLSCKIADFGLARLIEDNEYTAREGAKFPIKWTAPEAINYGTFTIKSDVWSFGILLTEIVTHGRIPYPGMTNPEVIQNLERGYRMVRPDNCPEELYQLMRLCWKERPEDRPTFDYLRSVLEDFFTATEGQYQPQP
PKCβII, sequence (P05771 1-673 isoform P05771-2): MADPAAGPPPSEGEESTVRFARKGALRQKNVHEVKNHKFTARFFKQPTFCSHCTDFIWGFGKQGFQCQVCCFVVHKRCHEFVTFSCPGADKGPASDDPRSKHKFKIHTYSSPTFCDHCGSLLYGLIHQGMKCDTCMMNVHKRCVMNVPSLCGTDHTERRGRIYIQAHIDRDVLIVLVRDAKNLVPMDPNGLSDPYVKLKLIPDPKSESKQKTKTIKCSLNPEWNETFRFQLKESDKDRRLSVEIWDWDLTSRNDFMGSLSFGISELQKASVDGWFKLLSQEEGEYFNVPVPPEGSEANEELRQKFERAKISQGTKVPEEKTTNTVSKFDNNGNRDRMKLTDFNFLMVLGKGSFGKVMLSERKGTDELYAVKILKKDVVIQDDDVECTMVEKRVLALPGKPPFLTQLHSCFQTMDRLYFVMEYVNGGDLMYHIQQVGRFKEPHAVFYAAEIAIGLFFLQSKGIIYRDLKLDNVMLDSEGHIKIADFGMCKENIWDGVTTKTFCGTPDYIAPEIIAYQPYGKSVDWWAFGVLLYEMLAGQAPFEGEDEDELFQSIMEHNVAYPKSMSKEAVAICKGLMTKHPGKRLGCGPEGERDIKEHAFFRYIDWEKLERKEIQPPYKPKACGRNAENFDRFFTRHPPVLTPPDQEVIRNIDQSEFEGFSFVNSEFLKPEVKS
cSrc, sequence (P12931 whole entry, species assumed): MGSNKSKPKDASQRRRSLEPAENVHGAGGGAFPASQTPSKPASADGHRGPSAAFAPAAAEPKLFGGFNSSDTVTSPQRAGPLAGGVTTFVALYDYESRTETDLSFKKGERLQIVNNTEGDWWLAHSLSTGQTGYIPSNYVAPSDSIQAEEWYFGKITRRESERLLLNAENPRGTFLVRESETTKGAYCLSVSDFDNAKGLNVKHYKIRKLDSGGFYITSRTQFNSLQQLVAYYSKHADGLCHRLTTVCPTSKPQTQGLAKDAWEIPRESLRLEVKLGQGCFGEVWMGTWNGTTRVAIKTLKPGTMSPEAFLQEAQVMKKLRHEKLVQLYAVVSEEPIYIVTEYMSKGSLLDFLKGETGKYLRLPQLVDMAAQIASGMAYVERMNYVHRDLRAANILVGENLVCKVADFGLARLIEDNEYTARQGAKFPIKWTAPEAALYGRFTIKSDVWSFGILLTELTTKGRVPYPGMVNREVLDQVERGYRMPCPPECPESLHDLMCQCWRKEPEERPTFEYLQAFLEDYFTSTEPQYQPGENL

In the case of `Cc1ccccc1-n1c(Cn2cnc3c(N)ncnc32)nc2cccc(C)c2c1=O`, the “Activity (% of control) ± SD” value [1] is given as 104 ± 2.2 % of control, the “Activity (% of control) ± SD” value (CK1) is given as “No inhibition*” and the “reduction in the accumulation of neutrophils in BAL fluid” value ([2]; 20 mg per kg oral) is given as “approximately 60%”. The “reduction in the accumulation of neutrophils in BAL fluid” value ([2]; 40 mg per kg oral) was about 80%, the “TNFα in BAL fluid” value ([2]; LPS-treated mice that received inhibitor) was “still detectable” and the “kinase activity of PDK1 in response to TNFα” value (PDK1 [3]) was “reduced the kinase activity”. The “Activity (% of control) ± SD” value (PDK1 [4]) was 91.5 ± 2.1 % of control, the “Activity (% of control) ± SD” value (CHK1) was “No inhibition*” and the “reduction of neutrophil tethering to HUVECs pre-incubated with inhibitor” value (TNFα-stimulated HUVECs; wall shear rate 100 s^−1) was 28%. The “reduction of neutrophil tethering to HUVECs pre-incubated with inhibitor” value (TNFα-stimulated HUVECs; wall shear rate 300 s^−1) was 40%, the “neutrophil tethering after treatment of neutrophils (not HUVECs) with inhibitor” value (TNFα-stimulated HUVECs; identical concentration (2 μM), HUVEC pre-treated with only TNFα) was “did not reduce neutrophil tethering” and the “Activity (% of control) ± SD” value (ZAP-70) was 97.5 ± 13.4 % of control. The “Activity (% of control) ± SD” value (CDK2/cyclinA) was 92.5 ± 2.12 % of control, the “Activity (% of control) ± SD” value [5] was 102 ± 5.5 % of control and the “Activity (% of control) ± SD” value [6] was 98 ± 6.2 % of control. For the same molecule, the “Activity (% of control) ± SD” value (PKCβII) was “No inhibition*”, the “phosphorylation of Akt (TNFα-mediated signaling)” value [7] was “reduction in phosphorylation of Akt” and the “Activity (% of control) ± SD” value (cSrc) was “No inhibition*”. For the same molecule, the “Activity (% of control) ± SD” value (Lck) was 116.5 ± 9.2 % of control, the “Activity (% of control) ± SD” value (PKC-θ) was 97 ± 5.5 % of control and the “Activity (% of control) ± SD” value (PKCα) was “No inhibition*”. For the same molecule, the “number of circulating neutrophils” value [8] was 2,730.7±1132.6, the “Activity (% of control) ± SD” value (DNA-PK) was “No inhibition*” and the “Activity (% of control) ± SD” value (PKBα (Akt 1)) was “No inhibition*”. The “fMLP-induced chemotaxis on an ICAM-1 substrate in vitro” value (neutrophils) was “diminished fMLP-induced chemotaxis”.
